From patent publication US7323447B2, “Hepatitis C virus inhibitors” (Bristol-Myers Squibb Company, priority 2005, dated 2008)

Experiments:
[1] = molecular target: T1, HCV NS3/4A protease complex (BMS strain) (UniProt P27958); assay: FRET peptide assay to monitor HCV NS3/4A proteolytic activity, BMS strain; assay type: biochemical, Hepatitis C virus (genotype 1a); conditions: read-out: IC50 Range; HCV NS3/4A enzyme assay; Table 1
T1 construct: other: HCV NS3/4A enzyme assay; said of H77 and J4L6S; fused on or other part: Three-lysine solubilising tail at the NS4A C-terminus and a His tag from pET21b (Ni-NTA purification), for the H77 and J4L6S constructs
T1 sequence (P27958 1027-1657, one chain of several): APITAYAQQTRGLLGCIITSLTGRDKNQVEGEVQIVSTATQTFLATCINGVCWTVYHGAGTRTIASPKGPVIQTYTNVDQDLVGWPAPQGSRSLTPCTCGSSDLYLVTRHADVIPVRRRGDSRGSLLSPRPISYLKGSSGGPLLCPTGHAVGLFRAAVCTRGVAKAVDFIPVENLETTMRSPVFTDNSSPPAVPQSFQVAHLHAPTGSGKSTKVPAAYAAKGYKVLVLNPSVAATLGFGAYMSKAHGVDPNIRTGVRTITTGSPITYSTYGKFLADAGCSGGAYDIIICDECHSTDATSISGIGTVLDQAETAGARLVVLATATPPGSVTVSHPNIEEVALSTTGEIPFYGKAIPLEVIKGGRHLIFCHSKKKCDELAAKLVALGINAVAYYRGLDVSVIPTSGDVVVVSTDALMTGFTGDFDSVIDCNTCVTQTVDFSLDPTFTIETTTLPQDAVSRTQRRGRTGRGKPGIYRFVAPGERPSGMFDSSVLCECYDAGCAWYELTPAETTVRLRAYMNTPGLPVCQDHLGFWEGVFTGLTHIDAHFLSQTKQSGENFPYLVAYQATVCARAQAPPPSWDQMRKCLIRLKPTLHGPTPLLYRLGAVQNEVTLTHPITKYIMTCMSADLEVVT
From the text: HCV NS3 protease complexes, derived from the BMS strain, H77 strain or J4L6S strain, were generated, as described below. These purified recombinant proteins were generated for use in a homogeneous assay (see below) to provide an indication of how effective compounds of the present disclosure would be in inhibiting HCV NS3 proteolytic activity.
Serum from an HCV-infected patient was obtained from Dr. T. Wright, San Francisco Hospital. An engineered full-length cDNA (compliment deoxyribonucleic acid) template of the HCV genome (BMS strain) was constructed from DNA fragments obtained by reverse transcription-PCR (RT-PCR) of serum RNA (ribonucleic acid) and using primers selected on the basis of homology between other genotype 1a strains. From the determination of the entire genome sequence, a genotype 1a was assigned to the HCV isolate according to the classification of Simmonds et al. (See P Simmonds, K A Rose, S Graham, S W Chan, F McOmish, B C Dow, E A Follett, P L Yap and […] Marsden, J. Clin. Microbiol., 31(6), 1493-1503 (1993)). […] The infectious clones, H77 (1a genotype) and J4L6S (1b genotype) were obtained from R. Purcell (NIH) and the sequences are published in Genbank (AAB67036, see Yanagi, M., Purcell, R. H., Emerson, S. U. and Bukh, J. Proc. Natl. Acad. Sci. U.S.A. 94(16), 8738-8743 (1997); AF054247, see Yanagi, M., St Claire, M., Shapiro, M., Emerson, S. U., Purcell, R. H. and Bukh, J, Virology 244 (1), 161-172. (1998)).
NS3/4A protease complex-containing fractions were pooled and loaded on a desalting column Superdex-S200 pre-equilibrated with buffer D (25 mM HEPES, pH 7.5, 20% glycerol, 300 mM NaCl, 0.2% Triton X-100, 10 mM βME). Sample was loaded at a flow rate of 1 mL/min. NS3/4A protease complex-containing fractions were pooled and concentrated to approximately 0.5 mg/ml. The purity of the NS3/4A protease complexes, derived from the BMS, H77 and J4L6S strains, were judged to be greater than 90% by SDS-PAGE and mass spectrometry analyses. The enzyme was stored at −80° C., thawed on ice and diluted prior to use in assay buffer.
The purpose of this in vitro assay was to measure the inhibition of HCV NS3 protease complexes, derived from the BMS strain, H77 strain or J4L6S strain, as described above, by compounds of the present disclosure. This assay provides an indication of how effective compounds of the present disclosure would be in inhibiting HCV NS3 proteolytic activity.
In order to monitor HCV NS3/4A protease activity, an NS3/4A peptide substrate was used. The substrate was RET S1 (Resonance Energy Transfer Depsipeptide Substrate; AnaSpec, Inc. cat # 22991) (FRET peptide), described by Taliani et al. in Anal. Biochem. 240(2):60-67 (1996). The sequence of this peptide is loosely based on the NS4A/NS4B natural cleavage site for the HCV NS3 protease except there is an ester linkage rather than an amide bond at the cleavage site. The peptide also contains a fluorescence donor, EDANS, near one end of the peptide and an acceptor, DABCYL, near the other end. The fluorescence of the peptide is quenched by […] resonance energy transfer (RET) between the donor and the acceptor, but as the NS3 protease cleaves the peptide the products are released from RET quenching and the fluorescence of the donor becomes apparent.
The peptide substrate was incubated with one of the three recombinant NS3/4A protease complexes, in the absence or presence of a compound of the present disclosure. The inhibitory effects of a compound were determined by monitoring the formation of fluorescent reaction product in real time using a Cytofluor Series 4000.
Assay buffer: 50 mM HEPES, pH 7.5; 0.15 M NaCl; 0.1% Triton; 15% Glycerol; 10 mM βME. Substrate: 2 μM final concentration (from a 2 mM stock solution in DMSO stored at −20° C.). HCV NS3/4A protease type 1a (1b), 2-3 nM final concentration (from a 5 μM stock solution in 25 mM HEPES, pH 7.5, 20% glycerol, 300 mM NaCl, 0.2% Triton-X100, 10 mM βME). […]

[2] = system: HCV replicon in HUH-7 cells; assay: HCV replicon FRET assay; assay type: cell-based, Hepatitis C virus (strain 1b); conditions: Hepatitis C virus, Huh-7, read-out: EC50 Range, HCV replicon cell assay; Table 1
From the text: An HCV replicon whole cell system was established as described by Lohmann V, Korner F, Koch J, Herian U, Theilmann L, Bartenschlager R., Science 285(5424): 110-3 (1999). This system enabled us to evaluate the effects of our HCV Protease compounds on HCV RNA replication. Briefly, using the HCV strain 1b sequence described in the Lohmann paper (Assession number: AJ238799), an HCV cDNA was synthesized by Operon Technologies, Inc. (Alameda, Calif.), and the full-length replicon was then assembled in plasmid pGem9zf(+) (Promega, Madison, Wis.) using standard molecular biology techniques. The replicon consists of (i) the HCV 5′ UTR fused to the first 12 amino acids of the capsid protein, (ii) the neomycin phosphotransferase gene (neo), (iii) the IRES from encephalomyocarditis virus (EMCV), and (iv) HCV NS3 to NS5B genes and the HCV 3′ UTR. Plasmid DNAs were linearized with ScaI and RNA transcripts were synthesized in vitro using the T7 MegaScript transcription kit (Ambion, Austin, Tex.) according to manufacturer's directions. In vitro transcripts of the cDNA were transfected into the human hepatoma cell line, HUH-7. […] Resulting cell lines were characterized for positive and negative strand RNA production and protein production over time.
The HCV replicon FRET assay was developed to monitor the inhibitory effects of compounds described in the disclosure on HCV viral replication. HUH-7 cells, constitutively expressing the HCV replicon, were grown in Dulbecco's Modified Eagle Media (DMEM) (Gibco-BRL) containing 10% Fetal calf serum (FCS) (Sigma) and 1 mg/ml G418 (Gibco-BRL). Cells were seeded the night before (1.5×10^4 cells/well) in 96-well tissue-culture sterile plates. Compound and no compound controls were prepared in DMEM containing 4% FCS, 1:100 Penicillin/Streptomysin (Gibco-BRL), 1:100 L-glutamine and 5% DMSO in the dilution plate (0.5% DMSO final concentration in the assay). Compound/DMSO mixes were added to the cells and incubated for 4 days at 37° C. After 4 days, cells were first assessed for cytotoxicity using alamar Blue (Trek Diagnotstic Systems) for a CC50 reading. The toxicity of compound (CC50) was determined by adding 1/10th volume of alamarBlue to the media incubating the cells. After 4 h, the fluorescence signal from each well was read, with an excitation wavelength at 530 nm and an emission wavelength of 580 nm, using the Cytofluor Series 4000 (Perspective Biosystems). Plates were then rinsed thoroughly with Phosphate-Buffered Saline (PBS) (3 times 150 μl). The cells were lysed with 25 μl of a lysis assay reagent containing an HCV protease substrate (5× cell Luciferase cell culture lysis reagent (Promega #E153A) diluted to 1× with distilled water, NaCl added to 150 mM final, the FRET peptide substrate (as described for the enzyme assay above) diluted to 10 μM final from a 2 mM stock in 100% DMSO. The plate was then placed into the Cytofluor 4000 instrument which had been set to 340 nm excitation/490 nm emissions, automatic mode for 21 cycles and the plate read in a kinetic mode. EC50 determinations were carried out as described for the IC50 determinations.

| Compound | IC50 [1] [nM] | EC50 [2] [nM] |
| --- | --- | --- |
| C=C[C@@H]1C[C@]1(NC(=O)[C@@H]1C[C@@H](Oc2cc(-c3ccccc3)nc3cc(OC)ccc23)CN1C(=O)[C@@H](OC(=O)Nc1ccc(N(C)C)cc1)C(C)(C)C)C(=O)NS(=O)(=O)C1CC1 [Example 5,Compound 7] | 100 to 1000 | 500 to 5000 |
| C=C[C@@H]1C[C@]1(NC(=O)[C@@H]1C[C@@H](Oc2nccc3ccccc23)CN1C(=O)[C@@H](O)C(C)(C)C)C(=O)NS(=O)(=O)C1CC1 [Example 8] | 100 to 1000 | 500 to 5000 |
| C=C[C@@H]1C[C@]1(NC(=O)[C@@H]1C[C@@H](Oc2nccc3ccccc23)CN1C(=O)[C@@H](OC(=O)NC1CCCC1)C(C)(C)C)C(=O)NS(=O)(=O)C1CC1 [Example 9] | 100 to 1000 | 500 to 5000 |
| CCC1C[C@]1(NC(=O)[C@@H]1C[C@@H](Oc2cc(-c3ccccc3)nc3cc(OC)ccc23)CN1C(=O)C(O)C(C)(C)C)C(=O)NS(=O)(=O)C1CC1 (stereo partly shown) [Example 10] | < 100 | 500 to 5000 |
| CCC1C[C@]1(NC(=O)[C@@H]1C[C@@H](Oc2cc(-c3ccccc3)nc3cc(OC)ccc23)CN1C(=O)C(O)C(C)C)C(=O)NS(=O)(=O)C1CC1 (stereo partly shown) [Example 11] | < 100 | 500 to 5000 |
| C=C[C@@H]1C[C@]1(NC(=O)[C@@H]1CC(Oc2cc(-c3ccccc3)nc3cc(OC)ccc23)CN1C(=O)[C@@H](O)C(C)(C)C)C(=O)NS(=O)(=O)C1(CC2CC2)CC1 (stereo partly shown) [Example 12] | < 100 | 500 to 5000 |
| CCC1C[C@]1(NC(=O)[C@@H]1C[C@@H](Oc2cc(-c3ccccc3)nc3cc(OC)ccc23)CN1C(=O)[C@@H](O)C1CCCCC1)C(=O)NS(=O)(=O)C1CC1 (stereo partly shown) [Example 13] | < 100 | 500 to 5000 |
| C=C[C@@H]1C[C@]1(NC(=O)[C@@H]1C[C@@H](Oc2cc(-c3ccccc3)nc3cc(OC)ccc23)CN1C(=O)C(O)c1ccccc1)C(=O)NS(=O)(=O)C1CC1 (stereo partly shown) [Example 14] | 100 to 1000 | > 5000 |
| CCC1C[C@]1(NC(=O)[C@@H]1C[C@@H](Oc2cc(-c3ccccc3)nc3cc(OC)ccc23)CN1C(=O)C1(O)CC1)C(=O)NS(=O)(=O)C1CC1 (stereo partly shown) [Example 15] | 100 to 1000 | 500 to 5000 |
| CCC1C[C@]1(NC(=O)[C@@H]1C[C@@H](Oc2cc(-c3ccccc3)nc3cc(OC)ccc23)CN1C(=O)C(O)Cc1c[nH]cn1)C(=O)NS(=O)(=O)C1CC1 (stereo partly shown) [Example 16] | 100 to 1000 | > 5000 |
| CCC1C[C@]1(NC(=O)[C@@H]1C[C@@H](Oc2cc(-c3ccccc3)nc3cc(OC)ccc23)CN1C(=O)[C@@H](O)CC(C)C)C(=O)NS(=O)(=O)C1CC1 (stereo partly shown) [Example 17] | 100 to 1000 | 500 to 5000 |
| C=C[C@@H]1C[C@]1(NC(=O)[C@@H]1C[C@@H](Oc2cc(-c3ccccc3)nc3cc(OC)ccc23)CN1C(=O)[C@H](O)c1ccccc1)C(=O)NS(=O)(=O)C1CC1 [Example 18] | 100 to 1000 | > 5000 |
| C=C[C@@H]1C[C@]1(NC(=O)[C@@H]1CC(Oc2nc(-c3ccc(OC(F)(F)F)cc3)cc3cc(OC)ccc23)CN1C(=O)[C@@H](O)C(C)(C)C)C(=O)NS(=O)(=O)C1CC1 (stereo partly shown) [Example 20] | < 100 | 500 to 5000 |
| C=C[C@@H]1CC1(NC(=O)[C@@H]1C[C@@H](Oc2cc(-c3ccccc3)nc3cc(OC)ccc23)CN1C(=O)[C@@H](OC(=O)NC(C)(C)C)C(C)(C)C)C(=O)NS(=O)(=O)C1(CC2CC2)CC1 (stereo partly shown) [Example 22] | < 100 | 500 to 5000 |
| C=C[C@@H]1C[C@]1(NC(=O)[C@@H]1C[C@@H](Oc2nc(-c3ccc(OC(F)(F)F)cc3)cc3cc(OC)ccc23)CN1C(=O)[C@@H](OC(=O)NC(C)(C)C)C(C)(C)C)C(=O)NS(=O)(=O)C1CC1 [Example 23] | < 100 | 500 to 5000 |
| C=C[C@@H]1C[C@]1(NC(=O)[C@@H]1C[C@@H](Oc2nccc3ccccc23)CN1C(=O)[C@@H](OC(=O)NC(C)(C)C)C(C)(C)C)C(=O)NS(=O)(=O)C1CC1 [Example 24] | 100 to 1000 | 500 to 5000 |
| C=C[C@@H]1C[C@]1(NC(=O)[C@@H]1C[C@@H](Oc2nccc3ccccc23)CN1C(=O)[C@@H](OC(=O)NCC)C(C)(C)C)C(=O)NS(=O)(=O)C1CC1 [Example 25] | 100 to 1000 | 500 to 5000 |
| C=C[C@@H]1C[C@]1(NC(=O)[C@@H]1C[C@@H](Oc2nccc3ccccc23)CN1C(=O)[C@@H](OC(=O)NC(C)C)C(C)(C)C)C(=O)NS(=O)(=O)C1CC1 [Example 26] | 100 to 1000 | 500 to 5000 |
| C=C[C@@H]1C[C@]1(NC(=O)[C@@H]1C[C@@H](Oc2nccc3ccccc23)CN1C(=O)[C@@H](OC(=O)NC1CCCCC1)C(C)(C)C)C(=O)NS(=O)(=O)C1CC1 [Example 27] | < 100 | 500 to 5000 |
| C=C[C@@H]1C[C@]1(NC(=O)[C@@H]1C[C@@H](Oc2nccc3ccccc23)CN1C(=O)[C@@H](OC(=O)Nc1ccccc1)C(C)(C)C)C(=O)NS(=O)(=O)C1CC1 [Example 28] | 100 to 1000 | 500 to 5000 |
